In one test the test system is PBMC. The experiment in a line: ELISPOT assay of IL-10 and IFN-γ secreting T cells responding to TCR CDR2 peptides. In kind it is cell-based, human. To be noted: for IFN-γ response: recognition by MS patients: induced IFN-γ-secreting T cells in all 5 HC; for frequency of IL-10-secreting T cells / frequency of IFN-γ secreting cells: 5 HC donors, single peptide; for response of MS patients compared with HC: expanded panel, 3 MS patients vs 5 HC. The protocol: FIGS. 13A-13B PBMC from healthy controls (HC) and MS patients respond differentially to TCR CDR2 peptides. A. Production of IL-10 and IFN-gamma was measured in the PBMC response to TCR BV CDR2 peptides (left) and TCR AV CDR2 peptides (right) representing the entire TCR BV and AV gene repertoire as measured by ELISPOT assay. PBMC responses to ConA were equivalent in HC and MS patients (not shown). B. Summary of cytokine-producing cells in which IL-10 or IFN-gamma production was summed for responses to all BV+AV CDR2 peptides. Total cytokine production represents the summation of IL-10-+IFN-gamma-secreting cells for all peptides. *P<0.05 comparing the frequency in HC vs. MS patients. The HC group consisted of five individuals, three females and two males. The MS patient group consisted of three individuals, two females with relapsing, remitting MS, both symptomatic, and one person with secondary, progressive MS.
To determine antigen-specific T cell frequency by ELISPOT, blood mononuclear cells were separated by Ficoll density gradient centrifugation, resuspended in 2% human AB serum, and aliquotted at 0.5 and 0.25 million cells in triplicate wells of nitrocellulose-coated microliter plates (Becton Dickinson, Franklin Lakes, N.J.) pretreated with anti-IFN-γ (Mabtech, Sweden) or anti-IL-10 (PharMingen, San Diego, Calif.) mAb. Peptides, ConA, and medium were added and the plates incubated at 37C for 24 hours (IFN-γ) or 48 hours (IL-10). Biotin-labeled secondary mAb for each cytokine was added, followed by streptavidin-alkaline phosphatase (Dako Corp., Carpinteria, Calif.) and substrate (BCIP/NBT phosphatase substrate, KPL Laboratories, Gaithersburg, Md.) to develop optimal blue staining. Cytokine spots were quantified using an AID Immunospot Analyzer (AID, Cleveland, Ohio) equipped with a high resolution lens camera and analytical software designed for use with the AID system. Mean spots/well were calculated for each Ag, and net counts established after subtraction of background (no Ag). The frequency of Ag-specific spot-forming cells per million PBMC was determined from the average net response observed at two different cell concentrations. The mean net frequency +SEM was calculated for MS patients and HC, and differences compared by Student's t test for significance (p<0.05).
PBMC were removed from plates by washing with 3× with PBS and 3× with PBS/0.05% Tween, pH 7.6. To each well was added 100 μl of either anti-IFN-γ (1 μg/ml, Mabtech, Sweden) or anti-IL-10 (2 μg/ml, PharMingen, San Diego, Calif.) and incubated for 4 hours at room temperature in the dark. Plates were washed 4× with PBS/Tween, then 100 μl per well of alkaline-phosphatase-conjugated streptavidin (DAKO) (1:1000 of stock) was added and plates were incubated for 45 minutes at room temperature. Plates were washed 4× with PBS/Tween and 6× with PBS, 1 minute each. 100 μl of BCIP/NBT substrate (KPL Laboratories, Gaithersburg, Md.) was added and the color reaction was allowed to develop for 3-7 minutes. Plates were rinsed 3× with distilled water and dried overnight at room temperature.
Plates were scanned with an Immunospot Reader (Cellular Technology Limited, Cleveland, Ohio) with optimized lighting conditions and analyzed according to the predetermined parameters of sensitivity, spot size, and background. The background counts were subtracted, and data was then normalized to cytokine secreting cells per million PBMC plated.
To evaluate native recognition of TCR determinants, the frequency of IL-10 and IFN-γ secreting T cells from the blood of 5 HC (3 females, 2 males, average age 28) was assessed using the ELISPOT assay, to detect responses to a comprehensive panel of 113 unique CDR2 peptides representing nearly all of the AV and BV repertoires (Table 1). Only 3 peptides, AV1 S4A1N1T, BV1551 and BV20S1A1N1, could not be tested due to solubility and toxicity problems. […]

For test [1], the system named is CD4+CD25+ versus CD4+CD25− populations. Kind of test: Proliferation of CD4+CD25+ versus CD4+CD25− populations stimulated with TCR peptide pool or control antigens. In kind it is cell-based, human. To be noted: HC donors with measurable Treg activity. The source says: To establish a connection between TCR-reactive T cells and Treg cells, whether TCR reactivity could be found in the CD4+CD25+ Treg cell subpopulation isolated directly from HC was first determined. Thus, CD4+CD25+ versus CD4+CD25− populations were isolated and stimulated with a pool of eight TCR CDR2 peptides that optimally distinguished differences in IL-10 responses between HC and MS patients (designated as Pool #1), or with control antigens, including Copolymer 1, a pool of neuropeptide antigens, and the recall antigen, TT. […] In addition, five treatment-naïve MS patients had no response to Pool #1 peptides in either the CD4+CD25+ or CD4+CD25− fractions and also had no detectable Treg activity. Six MS patients undergoing standard treatment also lacked response to Pool #1 peptides and Treg activity.

The values that follow come from patent US8053197B2, “Methods for detecting and treating autoimmune disorders” (Oregon Health & Science University, priority 2004, dated 2011).

In the case of “ALGQGPQFIFQTYEEEERQRG (TCR CDR2 peptide.) [BV5S2]”, the “frequencies of IL-10-secreting PBMC in MS patients versus HC” value in the test on PBMC is “significantly lower”.

With “DLGHGLRLIHYSYGVKDTNKG (TCR CDR2 peptide.) [BV12S2A2T]”, in the test with PBMC, the “IFN-γ response: recognition by MS patients” value (“IFN-γ response: recognition” for short) was “poorly recognized”.

In the case of “DLGHGLRLIHYSYGVQDTNKG (TCR CDR2 peptide.) [BV12S2A1T]”, the “IFN-γ response: recognition” value in the test with PBMC was “poorly recognized”.

For the substance Glatiramer acetate [Cop-1], the “proliferation of CD4+CD25+ compared with CD4+CD25− population” value in test [1] is “no proliferative response above background”.

In the case of “KHGEAPVFLMILLKGGEQKGH (TCR CDR2 peptide.) [AV29S1A2T]”, in the test on PBMC, the “frequency of IL-10-secreting T cells” value is over 1000 cells/million PBMC and the “response of MS patients compared with HC” value is “as well or better than HC”.

Take “KLEEELKFLVYFQNEELIQKA (TCR CDR2 peptide.) [BV10S1P]”: in the test with PBMC, the “frequency of IFN-γ secreting cells” value was “minimal frequencies” and the “frequency of IL-10-secreting T cells” value is reported as over 2000 cells/million PBMC.

Take “NQNKEFMLLISFQNEQVLQET (TCR CDR2 peptide.) [BV19S1P]”: in the test on PBMC, the “frequency of IFN-γ secreting cells” value turned out to be 900 cells/million PBMC.

As for “SSGEMIFLIYQGSYDQQNATE (TCR CDR2 peptide.) [ADV6S1A1N1]”, the “IFN-γ response: recognition” value with PBMC is reported as “poorly recognized”.

For TT: the recall antigen, TT, the “proliferation of CD4+CD25+ compared with CD4+CD25− population” value in test [1] is listed as “present mainly in the CD4+CD25− fraction”.

In the case of “YPNQGLQLLLKYTSAATLVKG (TCR CDR2 peptide.) [AV1S2A1N1T]”, the “response of MS patients compared with HC” value in the test with PBMC was “as well or better than HC”.
